Experimental data published in patent publication US7612082B2, “Prostaglandin EP4 antagonists” (Allergan, Inc., priority 2004, dated 2009).

Tests used:
[1] = target: T1, hDP (Homo sapiens, UniProt Q13258); assay: Calcium signal (FLIPR) assay, hDP (HEK); assay type: cell-based; conditions: for Kb: antagonism of standard agonist BW245C, HEK cells coexpress chimeric Gqs5
T1 construct: expressed in transfected cells; host or cells: HEK (by analogy HEK-293(EBNA))
T1 sequence (Q13258 1-359): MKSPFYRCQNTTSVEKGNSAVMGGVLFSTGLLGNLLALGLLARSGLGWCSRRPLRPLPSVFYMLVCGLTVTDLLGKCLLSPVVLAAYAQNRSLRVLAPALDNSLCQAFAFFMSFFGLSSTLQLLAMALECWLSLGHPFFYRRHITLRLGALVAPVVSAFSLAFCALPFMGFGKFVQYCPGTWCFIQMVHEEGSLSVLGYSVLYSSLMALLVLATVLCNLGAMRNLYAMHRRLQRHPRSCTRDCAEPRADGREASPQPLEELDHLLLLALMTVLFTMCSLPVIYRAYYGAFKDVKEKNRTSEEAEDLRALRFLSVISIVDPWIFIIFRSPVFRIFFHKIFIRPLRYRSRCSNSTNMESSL
Method: (§1) Cells were then washed twice with HBSS-HEPES buffer (Hanks Balanced Salt Solution without bicarbonate and phenol red, 20 mM HEPES, pH 7.4) using a Denley Cellwash plate washer (Labsystems; Franklin, Mass.). After 45-60 min of dye-loading in the dark using the calcium-sensitive dye Fluo-4 AM, at a final concentration of 2 μM, plates were washed four times with HBSS-HEPES buffer to remove excess dye and leaving 100 μl buffer in each well. Plates were then placed into a FLIPR™ instrument and were allowed to equilibrate at 37° C. Drug solution was added in a 50 μl volume to each well to give the desired final concentration. Cells were excited with an Argon laser at 488 nm, and emission was measured through a 510-570 nm bandwidth emission filter (FLIPR™, Molecular Devices, Sunnyvale, Calif.). The peak increase in fluorescence intensity was recorded for each well. […] A similar analysis was carried out for the other prostaglandin receptors, and for compound 2.

[2] = target: T2, hEP3A (Homo sapiens, UniProt P43115); assay: Calcium signal (FLIPR) assay, hEP3A (HEK); assay type: cell-based
T2 construct: expressed in transfected cells; host or cells: HEK (by analogy HEK-293(EBNA))
T2 sequence (P43115 1-390): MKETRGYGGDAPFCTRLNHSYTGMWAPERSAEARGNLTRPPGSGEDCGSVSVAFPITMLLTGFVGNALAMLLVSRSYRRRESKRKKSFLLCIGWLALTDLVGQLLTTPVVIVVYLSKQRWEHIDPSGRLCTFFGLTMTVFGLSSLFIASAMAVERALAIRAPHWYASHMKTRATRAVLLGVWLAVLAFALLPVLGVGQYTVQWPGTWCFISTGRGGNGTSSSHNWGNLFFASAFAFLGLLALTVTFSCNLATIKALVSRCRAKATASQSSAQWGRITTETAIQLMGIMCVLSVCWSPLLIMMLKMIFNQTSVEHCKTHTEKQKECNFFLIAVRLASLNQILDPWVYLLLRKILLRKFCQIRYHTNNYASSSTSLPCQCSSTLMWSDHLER
Method: (§2) Cells were then washed twice with HBSS-HEPES buffer (Hanks Balanced Salt Solution without bicarbonate and phenol red, 20 mM HEPES, pH 7.4) using a Denley Cellwash plate washer (Labsystems; Franklin, Mass.). After 45-60 min of dye-loading in the dark using the calcium-sensitive dye Fluo-4 AM, at a final concentration of 2 μM, plates were washed four times with HBSS-HEPES buffer to remove excess dye and leaving 100 μl buffer in each well. Plates were then placed into a FLIPR™ instrument and were allowed to equilibrate at 37° C. […] The peak increase in fluorescence intensity was recorded for each well.

[3] = target: T3, hFP (Homo sapiens, UniProt P43088); assay: Calcium signal (FLIPR) assay, hFP (HEK); assay type: cell-based
T3 construct: expressed in transfected cells; host or cells: HEK (by analogy HEK-293(EBNA))
T3 sequence (P43088 whole entry): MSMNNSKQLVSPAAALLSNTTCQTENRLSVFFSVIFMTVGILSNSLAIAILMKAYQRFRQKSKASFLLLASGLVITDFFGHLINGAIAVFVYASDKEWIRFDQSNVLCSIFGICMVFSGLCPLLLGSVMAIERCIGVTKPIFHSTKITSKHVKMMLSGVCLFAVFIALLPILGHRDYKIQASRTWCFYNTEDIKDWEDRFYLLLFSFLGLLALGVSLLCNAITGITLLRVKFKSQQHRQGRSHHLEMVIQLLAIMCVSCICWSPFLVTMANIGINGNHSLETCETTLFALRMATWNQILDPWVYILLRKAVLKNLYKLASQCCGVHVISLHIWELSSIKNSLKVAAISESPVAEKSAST
Method: as §2

[4] = Capsule or suppository given daily to patient suffering from cancer (Example 27); assay type: in vivo, human
Method: A capsule or suppository comprising compound 1 is administered daily to a patient suffering from cancer.

[5] = target: T4, hTP (Homo sapiens, UniProt P21731); assay: Calcium signal (FLIPR) assay, hTP (HEK); assay type: cell-based; conditions: for Kb: antagonism of standard agonist U-46619, HEK cells
T4 construct: expressed in transfected cells; host or cells: HEK (by analogy HEK-293(EBNA))
T4 sequence (P21731 1-343): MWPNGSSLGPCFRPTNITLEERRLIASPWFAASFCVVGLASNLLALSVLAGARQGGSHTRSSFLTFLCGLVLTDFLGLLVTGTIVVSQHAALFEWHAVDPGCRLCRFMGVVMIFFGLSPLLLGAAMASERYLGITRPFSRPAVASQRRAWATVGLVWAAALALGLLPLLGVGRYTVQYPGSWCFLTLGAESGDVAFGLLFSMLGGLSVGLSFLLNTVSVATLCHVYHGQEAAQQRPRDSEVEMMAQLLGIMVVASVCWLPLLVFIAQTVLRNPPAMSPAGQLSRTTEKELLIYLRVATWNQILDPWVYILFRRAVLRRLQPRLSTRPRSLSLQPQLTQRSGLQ
Method: as §1

[6] = target: T5, hEP2 (Homo sapiens, UniProt P43116); assay: Calcium signal (FLIPR) assay, hEP2 (HEK); assay type: cell-based
T5 construct: expressed in transfected cells; host or cells: HEK (by analogy HEK-293(EBNA))
T5 sequence (P43116 whole entry): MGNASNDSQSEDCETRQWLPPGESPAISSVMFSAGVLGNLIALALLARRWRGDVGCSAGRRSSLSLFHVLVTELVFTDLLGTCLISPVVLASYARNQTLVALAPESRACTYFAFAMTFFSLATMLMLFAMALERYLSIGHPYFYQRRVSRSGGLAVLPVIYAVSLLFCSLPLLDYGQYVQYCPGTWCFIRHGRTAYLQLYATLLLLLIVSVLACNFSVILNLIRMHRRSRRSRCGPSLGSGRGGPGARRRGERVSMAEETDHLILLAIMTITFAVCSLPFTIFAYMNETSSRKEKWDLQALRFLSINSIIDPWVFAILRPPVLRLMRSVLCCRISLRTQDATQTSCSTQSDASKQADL
Method: as §2

[7] = target: T6, hIP (Homo sapiens, UniProt P43119); assay: Calcium signal (FLIPR) assay, hIP (HEK); assay type: cell-based; conditions: antagonism of standard agonist Carbacyclin; HEK cells
T6 construct: expressed in transfected cells; host or cells: HEK (by analogy HEK-293(EBNA))
T6 sequence (P43119 whole entry): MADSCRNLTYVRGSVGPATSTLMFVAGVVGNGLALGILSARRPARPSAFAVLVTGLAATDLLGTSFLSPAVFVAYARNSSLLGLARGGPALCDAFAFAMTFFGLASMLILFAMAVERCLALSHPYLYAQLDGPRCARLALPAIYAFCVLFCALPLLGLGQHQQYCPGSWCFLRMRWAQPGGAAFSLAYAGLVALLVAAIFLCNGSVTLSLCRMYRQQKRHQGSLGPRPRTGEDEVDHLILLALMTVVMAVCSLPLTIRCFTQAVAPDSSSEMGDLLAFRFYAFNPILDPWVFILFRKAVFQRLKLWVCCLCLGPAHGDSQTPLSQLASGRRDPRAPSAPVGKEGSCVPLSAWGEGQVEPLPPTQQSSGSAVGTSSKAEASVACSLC
Method: as §2

[8] = target: T7, human EP4 receptor (Homo sapiens, UniProt P35408); assay: Effect on Prostaglandin E2 induced calcium signal (FLIPR), hEP4 (HEK); assay type: cell-based
T7 construct: expressed in transfected cells; host or cells: HEK-293(EBNA)
T7 sequence (P35408 whole entry): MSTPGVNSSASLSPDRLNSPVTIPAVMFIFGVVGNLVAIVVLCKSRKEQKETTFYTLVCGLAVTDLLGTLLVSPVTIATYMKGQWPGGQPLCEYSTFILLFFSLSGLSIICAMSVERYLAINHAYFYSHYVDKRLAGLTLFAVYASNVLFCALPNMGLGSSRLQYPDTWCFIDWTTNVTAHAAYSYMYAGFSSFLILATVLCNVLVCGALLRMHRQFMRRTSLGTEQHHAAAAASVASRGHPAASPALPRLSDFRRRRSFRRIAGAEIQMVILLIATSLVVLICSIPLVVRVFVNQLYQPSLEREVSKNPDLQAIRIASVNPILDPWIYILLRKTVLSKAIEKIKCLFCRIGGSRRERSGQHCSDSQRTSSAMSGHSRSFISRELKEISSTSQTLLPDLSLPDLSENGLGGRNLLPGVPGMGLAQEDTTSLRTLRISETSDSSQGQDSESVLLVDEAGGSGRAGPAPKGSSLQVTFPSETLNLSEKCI
Method: as §2

[9] = target: T8, hEP1 (Homo sapiens, UniProt P34995); assay: Calcium signal (FLIPR) assay, hEP1 (HEK); assay type: cell-based
T8 construct: expressed in transfected cells; host or cells: HEK (by analogy HEK-293(EBNA))
T8 sequence (P34995 1-402): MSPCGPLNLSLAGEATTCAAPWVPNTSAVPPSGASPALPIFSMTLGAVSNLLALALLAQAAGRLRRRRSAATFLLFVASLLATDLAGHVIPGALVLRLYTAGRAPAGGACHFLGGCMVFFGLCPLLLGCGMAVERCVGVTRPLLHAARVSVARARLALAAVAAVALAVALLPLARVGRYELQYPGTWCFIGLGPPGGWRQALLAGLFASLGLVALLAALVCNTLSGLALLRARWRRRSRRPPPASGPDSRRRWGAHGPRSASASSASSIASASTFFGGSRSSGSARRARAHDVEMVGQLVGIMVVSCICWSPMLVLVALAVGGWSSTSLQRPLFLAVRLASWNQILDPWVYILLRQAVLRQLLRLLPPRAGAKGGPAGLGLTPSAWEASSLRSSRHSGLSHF
Method: as §1

[10] = Capsule given daily to patient suffering from osteoporosis (Example 25); assay type: in vivo, human
Method: A capsule comprising compound 2 is administered daily to a patient suffering from osteoporosis.

[11] = Tablet given to person suffering from migraine headache (Example 26); assay type: in vivo, human; conditions: person suffering from a migraine headache
Method: A tablet comprising compound 2 is administered to a person suffering from a migraine headache.

| SMILES | Kb [2] | Kb [1] | Kb [3] | Kb [5] | Kb [6] | Kb [7] | Kb [8] | Kb [9] | also measured |
| --- | --- | --- | --- | --- | --- | --- | --- | --- | --- |
| O=C(O)CCCCCCC1C(=O)NC(=O)N1CCC(O)C1CCCCC1 (stereo not shown) [BW245C, reference compound] | – | – | – | – | – | – | – | – | EC50 ([1]; agonist potency, calcium signal, cells coexpress chimeric Gqs5, read-out: Standard agonist hDP (HEK)): 0.006 µM |
| CCCCC[C@H](O)/C=C/[C@@H]1[C@@H](C/C=C\CCCC(=O)O)[C@H]2CO[C@@H]1C2 [Compound U-46619, U-46619, reference compound] | – | – | – | – | – | – | – | – | EC50 ([5]; agonist potency, calcium signal, read-out: Standard agonist hTP (HEK)): 0.0003 µM |
| CCCCC[C@H](O)/C=C/[C@H]1[C@H](O)CC(=O)[C@@H]1C/C=C\CCCC(=O)O [PGE2, Prostaglandin E2, reference compound] | – | – | – | – | – | – | – | – | EC50 ([9]; agonist potency, calcium signal, read-out: Standard agonist hEP1 (HEK)): 0.0003 µM |

Further lines, with some results ahead:

| Kb [2] | Kb [1] | Kb [3] | Kb [5] | Kb [6] | Kb [7] | Kb [8] | Kb [9] | SMILES | also measured |
| --- | --- | --- | --- | --- | --- | --- | --- | --- | --- |
| > 10 µM | > 10 µM | > 10 µM | > 10 µM | > 10 µM | > 10 µM | 0.101 µM | > 10 µM | CN(CC(=O)Nc1c2c(nc3c1CCC3)CCCC2)Cc1ccccc1 [Compound 1] | Patient's condition [4]: Improvement in the patient's condition occurs |
| > 10 µM | > 10 µM | > 10 µM | > 10 µM | > 10 µM | > 10 µM | 0.172 µM | > 10 µM | CN(CC(=O)Nc1c2c(nc3ccccc13)CCC2)Cc1ccccc1 [Compound 2] | Bone density [10]: Increase in bone density or reduction in bone density loss occurs; Pain [11]: Significantly less pain is experienced by the patient |
